Reference: article PMC6277767, “Broad and Region-Specific Impacts of the Synthetic Cannabinoid CP 55,940 in Adolescent and Adult Female Mouse Brains” (Frontiers in Molecular Neuroscience, 2018)

Test system: CD1 female mouse brain lipidome
Assay: Brain-region lipid levels (HPLC/MS/MS lipidomics) 2 h after single i.p. 3 mg/kg CP 55,940 vs vehicle
Assay type: in vivo
Parameters: N-arachidonoyl phenylalanine level, Mean / N-stearoyl tryptophan level, Mean / N-stearoyl proline level, Mean / N-stearoyl leucine level, Mean / N-stearoyl phenylalanine level, Mean / N-stearoyl serine level, Mean / N-stearoyl methionine level, Mean: unit: moles per gram
Conditions: cortex
Method: The Bloomington Institutional Animal Care and Use Committee of Indiana University reviewed and approved the animal procedures. Female mice from the CD1 strain were utilized to match our study examining THC’s effects on the brain lipidome ([Leishman et al., 2018]). Mice were given a single i.p. injection of either 3 mg/kg CP or 1:1:18 cremophor:ethanol:saline vehicle (please refer to the section “3 mg/kg CP Is Relevant for Synthetic Cannabinoid Abuse and Has Stronger Effects on the Female Mouse Brain Lipidome During Adolescence” for a justification of dose and use of female mice). Three different age groups were given injections: PND 35 and PND 50 adolescents, and adult mice (PND 113). At least eight mice in each age group received CP and at least eight received vehicle. Matching the THC study time course ([Leishman et al., 2018]), mice were sacrificed via rapid decapitation 2 h after injection. Brains were immediately removed and flash-frozen in liquid nitrogen, and then stored at -80°C until dissections were performed. Brains were dissected on an ice-cold dissection plate into the following regions: STR, HIPP, CER, THAL, CTX, HYP, MID, and STEM. These abbreviations for these brain areas will be used exclusively when discussing the results generated by these specific dissections. Each dissected area was immediately placed in liquid nitrogen and then stored at -80°C until used for lipid extraction.
Tissue extracts were performed as previously described ([Bradshaw et al., 2006]; [Stuart et al., 2013]; [Raboune et al., 2014]; [Leishman et al., 2016a],[b], [2017], [2018]). First, samples were shock frozen in liquid nitrogen, weighed, and transferred to a centrifuge tube. The mass of the largest sample was multiplied by 50 to determine how many milliliters of HPLC-grade methanol (Fisher, Fair Lawn, NJ, United States) to add. Then, samples were spiked with 500 pmol deuterium-labeled NAGly (d8NAGly; Cayman Chemical, Ann Arbor, MI, United States). Samples were placed on ice in darkness for 2 h then individually homogenized and centrifuged at 19,000 × g for 20 min at 20°C. Supernatants were diluted with HPLC water (purified in house) to make a solution of 75% water, 25% supernatant. Lipids were partially purified on C18 solid phase extraction columns (Agilent, Palo Alto, CA, United States). A series of four elutions with 1.5 mL of 60%, 75%, 85%, and 100% methanol were collected ([Stuart et al., 2013]; [Leishman et al., 2016a],[b], [2018]).
As previously described ([Bradshaw et al., 2006]; [Tan et al., 2006]; [Smoum et al., 2010]; [Stuart et al., 2013]; [Tortoriello et al., 2013]; [Raboune et al., 2014]; [Leishman et al., 2016a],[b], [2017], [2018]), samples were analyzed using an Applied Biosystems API 3000 triple quadrupole mass spectrometer with electrospray ionization (Foster City, CA, United States). Using an Agilent XDB-C18 reversed phase analytical column and optimized mobile phase gradients, 20 μL from each elution were chromatographed. Two Shimadzu 10ADvp pumps (Columbia, MD, United States) provided the pressure for gradient elution. Mobile phase A: 20% methanol, 80% water (v/v) and 1 mM ammonium acetate (Sigma, St. Louis, MO, United States). Mobile phase B: 100% methanol, 1 mM ammonium acetate. Every method run began with 0% mobile phase B, reached 100% mobile phase B flowing at 0.2 mL/min, and gradually returned to 0% mobile phase B.
This screening library will be referred to as the lipidome when discussing data from this study. HPLC/MS/MS data were analyzed using Analyst software (Applied Biosystems) ([Bradshaw et al., 2006]; [Tan et al., 2006]; [Stuart et al., 2013]; [Tortoriello et al., 2013]; [Raboune et al., 2014]; [Leishman et al., 2016a],[b], [2017], [2018]). Chromatograms (Supplementary Figure 3) were generated by determining the retention time of analytes from the analytical column with a [M-1] or [M+1] parent peak and a fragmentation peak corresponding to the programmed values. […]

[1] = PND 50, 3 mg/kg CP 55,940, ANOVA p .000
[2] = PND 50, 3 mg/kg CP 55,940, ANOVA p .002
[3] = PND 50, 3 mg/kg CP 55,940, ANOVA p .004
[4] = PND 50, 3 mg/kg CP 55,940, ANOVA p .040
[5] = PND 50 female mice, 3mg/kg CP 55,940

`CCCCCCC(C)(C)c1ccc([C@@H]2C[C@H](O)CC[C@H]2CCCO)c(O)c1` [CP 55,940] was tested, and the “Arachidonic acid, Direction (relative to Veh)” value (PND 50, 3 mg/kg CP 55,940) was “↓”, the “Linoleic acid, Direction (relative to Veh)” value (PND 50, 3 mg/kg CP 55,940) was “↓” and the “N-arachidonoyl GABA Direction (relative to Veh)” value (PND 50, 3 mg/kg CP 55,940) was “↓”. The “N-arachidonoyl alanine, Direction (relative to Veh)” value (PND 50, 3 mg/kg CP 55,940) was “↓”, the “N-arachidonoyl ethanolamine, Direction (relative to Veh)” value (PND 50, 3 mg/kg CP 55,940) was “↓” and the “N-arachidonoyl phenylalanine, Direction (relative to Veh)” value (PND 50, 3 mg/kg CP 55,940) was “↓”. For the same compound, the “N-arachidonoyl taurine Direction (relative to Veh)” value (PND 50, 3 mg/kg CP 55,940) was “↓”, the “N-docosahexaenoyl ethanolamine, Direction (relative to Veh)” value (PND 50, 3 mg/kg CP 55,940) was “↓” and the “N-linoleoyl ethanolamine, Direction (relative to Veh)” value (PND 50, 3 mg/kg CP 55,940) was “↓”. For the same compound, the “N-oleoyl ethanolamine, Direction (relative to Veh)” value (PND 50, 3 mg/kg CP 55,940) was “↓”, the “N-oleoyl serine, Direction (relative to Veh)” value (PND 50, 3 mg/kg CP 55,940) was “↑” and the “N-palmitoyl leucine, Direction (relative to Veh)” value (PND 50, 3 mg/kg CP 55,940) was “↑”. The “N-palmitoyl methionine, Direction (relative to Veh)” value (PND 50, 3 mg/kg CP 55,940) was “↑”, the “N-palmitoyl phenylalanine Direction (relative to Veh)” value (PND 50, 3 mg/kg CP 55,940) was “↑” and the “N-palmitoyl tyrosine, Direction (relative to Veh)” value (PND 50, 3 mg/kg CP 55,940) was “↑”. The “N-palmitoyl valine Direction (relative to Veh)” value (PND 50, 3 mg/kg CP 55,940) was “↑”, the “N-stearoyl phenylalanine, Direction (relative to Veh)” value (PND 50, 3 mg/kg CP 55,940) was “↑” and the “N-stearoyl valine Direction (relative to Veh)” value (PND 50, 3 mg/kg CP 55,940) was “↑”. The “PGE2 Direction (relative to Veh)” value (PND 50, 3 mg/kg CP 55,940) was “↓”, the “Linoleic acid, Magnitude (x Veh level)” value [1] was 0.57 x Veh level and the “N-palmitoyl leucine, Magnitude (x Veh level)” value [1] was 1.41 x Veh level. For the same compound, the “N-palmitoyl methionine, Magnitude (x Veh level)” value [1] was 1.43 x Veh level, the “N-oleoyl ethanolamine, Magnitude (x Veh level)” value [2] was 0.65 x Veh level and the “PGE2 Magnitude (x Veh level)” value [2] was 0.79 x Veh level. For the same compound, the “N-arachidonoyl GABA Magnitude (x Veh level)” value [3] was 0.86 x Veh level, the “N-arachidonoyl taurine Magnitude (x Veh level)” value [3] was 0.84 x Veh level and the “2-linoleoyl glycerol Magnitude (x Veh level)” value (PND 50, 3 mg/kg CP 55,940, ANOVA p .005) was 0.67 x Veh level. The “N-palmitoyl phenylalanine Magnitude (x Veh level)” value (PND 50, 3 mg/kg CP 55,940, ANOVA p .006) was 1.39 x Veh level, the “N-arachidonoyl ethanolamine, Magnitude (x Veh level)” value (PND 50, 3 mg/kg CP 55,940, ANOVA p .007) was 0.70 x Veh level and the “N-arachidonoyl alanine Magnitude (x Veh level)” value (PND 50, 3 mg/kg CP 55,940, ANOVA p .012) was 0.75 x Veh level. The “N-docosahexaenoyl ethanolamine, Magnitude (x Veh level)” value (PND 50, 3 mg/kg CP 55,940, ANOVA p .014) was 0.72 x Veh level, the “2-oleoyl glycerol, Magnitude (x Veh level)” value (PND 50, 3 mg/kg CP 55,940, ANOVA p .018) was 0.88 x Veh level and the “N-palmitoyl valine Magnitude (x Veh level)” value (PND 50, 3 mg/kg CP 55,940, ANOVA p .019) was 1.37 x Veh level. For the same compound, the “N-stearoyl phenylalanine, Magnitude (x Veh level)” value (PND 50, 3 mg/kg CP 55,940, ANOVA p .039) was 1.12 x Veh level, the “Arachidonic acid, Magnitude (x Veh level)” value [4] was 0.76 x Veh level and the “N-oleoyl serine, Magnitude (x Veh level)” value [4] was 1.09 x Veh level. The “N-arachidonoyl phenylalanine, Magnitude (x Veh level)” value (PND 50, 3 mg/kg CP 55,940, ANOVA p .044) was 0.78 x Veh level, the “N-palmitoyl tyrosine Magnitude (x Veh level)” value (PND 50, 3 mg/kg CP 55,940, ANOVA p .053) was 1.25 x Veh level and the “N-linoleoyl ethanolamine, Magnitude (x Veh level)” value (PND 50, 3 mg/kg CP 55,940, ANOVA p .066) was 0.69 x Veh level. For the same compound, the “N-stearoyl valine Magnitude (x Veh level)” value (PND 50, 3 mg/kg CP 55,940, ANOVA p .067) was 1.29 x Veh level, the “2-arachidonoyl glycerol level, Mean” value [5] was 2.72E-09 and the “2-linoleoyl glycerol level, Mean” value [5] was 9.55E-11. For the same compound, the “2-oleoyl glycerol level, Mean” value [5] was 1.53E-09, the “2-palmitoyl glycerol level, Mean” value [5] was 5.35E-09 and the “6-ketoPGF1α level, Mean” value [5] was 5.34E-12. For the same compound, the “11-OH-THC level, Mean” value [5] was “BDL”, the “11-nor-9-carboxyTHC level, Mean” value [5] was “BDL” and the “Arachidonic acid level, Mean” value [5] was 1.42E-09. For the same compound, the “Cannabidiol level, Mean” value [5] was “BDL”, the “Linoleic acid level, Mean” value [5] was 9.48E-10 and the “N- stearoyl valine level, Mean” value [5] was 2.32E-13. For the same compound, the “N-arachidonoyl GABA level, Mean” value [5] was 1.93E-11, the “N-arachidonoyl alanine level, Mean” value [5] was 9.08E-13 and the “N-arachidonoyl dopamine level, Mean” value [5] was “BDL”. For the same compound, the “N-arachidonoyl ethanolamine level, Mean” value [5] was 1.23E-11, the “N-arachidonoyl glycine level, Mean” value [5] was 3.26E-12 and the “N-arachidonoyl phenylalanine level, Mean” value [5] was 4.3E-13. For the same compound, the “N-arachidonoyl proline level, Mean” value [5] was “BDL”, the “N-arachidonoyl serine level, Mean” value [5] was 1.27E-11 and the “N-arachidonoyl taurine level, Mean” value [5] was 5.99E-11. For the same compound, the “N-arachidonoyl tryptophan level, Mean” value [5] was “BDL”, the “N-arachidonoyl tyrosine level, Mean” value [5] was 1.87E-13 and the “N-docosahexaenoyl GABA level, Mean” value [5] was 9.29E-12. The “N-docosahexaenoyl ethanolamine level, Mean” value [5] was 1.26E-11, the “N-docosahexaenoyl glycine level, Mean” value [5] was 3.17E-13 and the “N-docosahexaenoyl leucine level, Mean” value [5] was 3.29E-13. For the same compound, the “N-docosahexaenoyl methionine level, Mean” value [5] was “BDL”, the “N-docosahexaenoyl phenylalanine level, Mean” value [5] was 4.81E-13 and the “N-docosahexaenoyl proline level, Mean” value [5] was “BDL”. The “N-docosahexaenoyl serine level, Mean” value [5] was 1.83E-11, the “N-docosahexaenoyl tryptophan level, Mean” value [5] was “BDL” and the “N-docosahexaenoyl tyrosine level, Mean” value [5] was 3.22E-13. The “N-docosahexaenoyl valine level, Mean” value [5] was “PISSR”, the “N-linoleoyl GABA level, Mean” value [5] was 6.54E-12 and the “N-linoleoyl ethanolamine level, Mean” value [5] was 1.61E-11. For the same compound, the “N-linoleoyl glycine level, Mean” value [5] was 1.08E-13, the “N-linoleoyl leucine level, Mean” value [5] was 7.72E-14 and the “N-linoleoyl methionine level, Mean” value [5] was “BDL”. The “N-linoleoyl phenylalanine level, Mean” value [5] was 1E-13, the “N-linoleoyl proline level, Mean” value [5] was “BDL” and the “N-linoleoyl serine level, Mean” value [5] was 6.54E-11. For the same compound, the “N-linoleoyl tryptophan level, Mean” value [5] was “BDL”, the “N-linoleoyl tyrosine level, Mean” value [5] was “BDL” and the “N-linoleoyl valine level, Mean” value [5] was “PISSR”. For the same compound, the “N-nervonoyl valine level, Mean” value [5] was “BDL”, the “N-oleoyl GABA level, Mean” value [5] was 1.38E-11 and the “N-oleoyl alanine level, Mean” value [5] was 1.52E-12. The “N-oleoyl dopamine level, Mean” value [5] was “BDL”, the “N-oleoyl ethanolamine level, Mean” value [5] was 3.66E-11 and the “N-oleoyl glycine level, Mean” value [5] was 1.38E-12. The “N-oleoyl leucine level, Mean” value [5] was 7.87E-13, the “N-oleoyl methionine level, Mean” value [5] was 2.34E-13 and the “N-oleoyl phenylalanine level, Mean” value [5] was 1.02E-12. For the same compound, the “N-oleoyl proline level, Mean” value [5] was “BDL”, the “N-oleoyl serine level, Mean” value [5] was 1.22E-10 and the “N-oleoyl tryptophan level, Mean” value [5] was “BDL”. For the same compound, the “N-oleoyl tyrosine level, Mean” value [5] was 3.4E-13, the “N-oleoyl valine level, Mean” value [5] was 6.43E-14 and the “N-palmitoyl GABA level, Mean” value [5] was 1.74E-11. The “N-palmitoyl alanine level, Mean” value [5] was 1.42E-12, the “N-palmitoyl ethanolamine level, Mean” value [5] was 1.43E-11 and the “N-palmitoyl glycine level, Mean” value [5] was 6.08E-12.
